Reference: patent US12070031B2 (priority 2020, dated 2024)
Where a name gives a salt, the structure may show the parent alone.

Tests used:
X. alfalfae [1] = experiment: MIC by broth microdilution (CLSI) with resazurin; type: cell-based, Xanthomonas alfalfae subsp. citrumelonis
Protocol: (§1) The antimicrobial efficacy of the ZnNP-Strep and controls were evaluated by the antimicrobial assay methods as previously described. Briefly, Microplate Alamar Blue Assay (MABA) was performed to initially screen the antimicrobial efficacy of the NPs. Then, the minimum inhibitory concentration (MIC) was determined by broth microdilution method in accordance with the guidelines of the Clinical and Laboratory Standards Institute (CLSI). As per the CLSI requirements, from a starter culture of 0.5 McFarland Standard, 5×10^5 CFU/well was added to all the wells. […] The accuracy of the MIC determination was improved by adding 10 μL of resazurin dye (0.0125%, w/v) per 100 μL well volume and observing color changes (from blue to pink for live organisms).

P. syringae = experiment: MIC by broth microdilution (CLSI) with resazurin; type: cell-based, Pseudomonas syringae
Protocol: as §1

E. coli = experiment: MIC by broth microdilution (CLSI) with resazurin; type: cell-based, Escherichia coli
Protocol: as §1

[2] = test system: tomato plants (Solanum lycopersicum); experiment: Phytotoxicity after foliar application; type: in vivo; set-up: key to Phytotoxicity, Tomato sp.: No toxicity (−); symptoms appear on less than 5% of the leaves was rated as minimal (+); 5 to 50% was rated as moderate (++); above 50% was rated as severe (+++); conditions: for Phytotoxicity, Tomato sp.: foliar, 72 h
Protocol: The phytotoxicity of the ZnNP adjuvant with and without streptomycin was tested on tomato plants (Solanum lycopersicum, model fruit plant, 11 cm tall) obtained from Home Depot. The ZnNP treatments were applied directly on plant leaves (foliar application) using a hand-held sprayer until excess liquid starts dripping. Foliar application was conducted at 8:00 a.m. in a greenhouse setting to simulate field conditions. Treated plants were then placed in a growth chamber, Panasonic environmental test chamber (model MLR-352H) with summer settings (34° C., 60-80% RH). Phytotoxicity was evaluated 72 h post application. Digital photographs of treated leaves were taken for the visual assessment (phenotypic) plant tissue damage. Parallel treatments were done with copper sulfate at 1000 μg/mL (positive control) and DI water (untreated control, UTC) to compare phytotoxicity level with the ZnNP treatments. The appearance of brown necrotic spots, chlorosis, and necrosis on the leaves is indicative of plant tissue damage (i.e. phytotoxicity). Phytotoxicity was rated as follows: No toxicity (−), symptoms appear on less than 5% of the leaves was rated as minimal (+), 5 to 50% was rated as moderate (++), and above 50% was rated as severe (+++). Phytotoxicity studies were carried out in triplicate for each treatment and concentration.

X. alfalfae [3] = experiment: MIC of ZnNP-Strep after dialysis (simulated rainfall); type: cell-based, Xanthomonas alfalfae subsp. citrumelonis; conditions: Xanthomonas alfalfae; dialysis time N/A; relative to streptomycin concentration
Protocol: as §1
The antimicrobial efficacy of ZnNP-Strep was also studied after dialysis of the particles. […] The particles were dialyzed for 0, 1, 3, and 12 h and the remaining streptomycin loaded on the particles for each timepoint was quantified by LCMS by diluting the particles with 1% HCl and analyzing them with the previously described method. After streptomycin quantification the particles were diluted to 500 ppm streptomycin and their antimicrobial efficacy was assessed via MIC assay described above. The minimum bactericidal concentration (MBC) of the particles was also assessed by performing colony forming unit (CFU) plating. […]

X. alfalfae [4] = experiment: MBC by CFU plating after dialysis; type: cell-based, Xanthomonas alfalfae subsp. citrumelonis; conditions: Xanthomonas alfalfae; dialysis time N/A; relative to streptomycin concentration
Protocol: The antimicrobial efficacy of ZnNP-Strep was also studied after dialysis of the particles. The particles were dialyzed to remove any unbound streptomycin and simulate the effect of rainfall on the particles in field conditions. […] The particles were dialyzed for 0, 1, 3, and 12 h and the remaining streptomycin loaded on the particles for each timepoint was quantified by LCMS by diluting the particles with 1% HCl and analyzing them with the previously described method. After streptomycin quantification the particles were diluted to 500 ppm streptomycin and their antimicrobial efficacy was assessed via MIC assay described above. The minimum bactericidal concentration (MBC) of the particles was also assessed by performing colony forming unit (CFU) plating. After 24 h incubation of bacteria with the samples, 100 μL of the treated bacteria was then transferred to nutrient agar plates. They were then spread dry using sterile spreaders (Fisher Scientific) and incubated for 48 h to check for bacterial growth at each concentration tested.

[5] = 24 h incubation, concentration active
[6] = highest concentration tested, 1000 μg/mL

CC(=O)N[C@@H](CS)C(=O)O [NAC, N-acetylcysteine]
X. alfalfae (MIC) (X. alfalfae [1]; [5]): No inhibition | growth inhibitory effect (X. alfalfae [1]; [6]): no growth inhibitory effect | P. syringae (MIC) (P. syringae; [5]): No inhibition | growth inhibitory effect (P. syringae; [6]): no growth inhibitory effect | E. coli (MIC) (E. coli; [5]): No inhibition | growth inhibitory effect (E. coli; [6]): no growth inhibitory effect

O=S(=O)([O-])[O-].[Cu+2] [Copper sulfate, copper sulfate]
Phytotoxicity, Tomato sp. ([2]; 1000 μg/mL Cu): +++ (above 50% was rated as severe (+++)) | signs of phytotoxicity (visual) ([2]; 72 hrs after foliar application): many brown spots

[H]/N=C(/N)N[C@H]1[C@H](O)[C@@H](O)[C@H](O[C@@H]2O[C@@H](C)[C@](O)(C=O)[C@H]2O[C@@H]2O[C@@H](CO)[C@H](O)[C@@H](O)[C@@H]2NC)[C@@H](N/C(N)=N\[H])[C@@H]1O [Streptomycin sulfate, streptomycin sulfate]
MIC (X. alfalfae [1]; Xanthomonas alfalfae, 24 h incubation, concentration active): 2 µg/mL | MIC (P. syringae; Pseudomonas syringae, 24 h incubation, concentration active): 2 µg/mL | MIC (E. coli; Escherichia coli, 24 h incubation, concentration active): 6 µg/mL | MIC (X. alfalfae [3]): 1 µg/mL | MBC (X. alfalfae [4]): 16 µg/mL | Phytotoxicity, Tomato sp. ([2]; 1000 μg/mL Strep): −
